BindingDB's records for doi:10.1021/jm00159a013 (1986)

Target: Prostacyclin synthase (Sus scrofa)
Experiment: Inhibition of porcine aorta prostacyclin PGI-2 synthetase

IC50, > 100 µM:
Cc1c(Cn2ccnc2)oc2ccc(C(=O)O)cc12 [2-Imidazol-1-ylmethyl-3-methyl-benzofuran-5-carboxylic acid]
O=C(O)c1ccc2c(Cl)c(Cn3ccnc3)sc2c1 [3-Chloro-2-imidazol-1-ylmethyl-benzo[b]thiophene-6-carboxylic acid]
O=C(O)c1ccc2sc(Cn3ccnc3)cc2c1 [2-Imidazol-1-ylmethyl-benzo[b]thiophene-5-carboxylic acid]
Cc1c(Cn2ccnc2)sc2ccc(C(=O)O)cc12 [2-Imidazol-1-ylmethyl-3-methyl-benzo[b]thiophene-5-carboxylic acid]
Cc1c(Cn2ccnc2)sc2cc(C(=O)O)ccc12 [2-Imidazol-1-ylmethyl-3-methyl-benzo[b]thiophene-6-carboxylic acid]
O=C(O)c1ccc2oc(Cn3ccnc3)c(Cl)c2c1 [3-Chloro-2-imidazol-1-ylmethyl-benzofuran-5-carboxylic acid]
